Results: US3974153A, “7-Hydrocarbonoxy imino-acetamido-3-carbamoyloxy methylceph-3-em-4 carboxylic acids” (Glaxo Laboratories Limited, priority 1971, dated 1976)
Counter-ions that a name gives are not always drawn.

Legend:
[1] = exposure of crystalline forms to water vapour; assay type: physicochemical; settings: for water content after exposure to moisture (Karl-Fischer): 75% relative humidity, 3 days, product is Form IV
Procedure: The resulting material contains about 4% water (i.e. about 1 mole) and is believed to be a hydrate. This change is reversible, so that Form IV salt may be converted to Form I salt by, for example, drying in vacuo over a desiccating agent such as phosphorus pentoxide.
If crystalline Form III material is treated in this way, the crystal habit of the product appears to be retained throughout the sequence of transformations. Form III salt may also be converted to Form I salt by heating a suspension of Form III material in nearly boiling methanol; this transformation […] in loss of crystallinity where crystalline Form III material is used.
Sample of Form I and Form III sodium 3-carbamoyloxymethyl-7-[2-(fur-2-yl)-2-methoxyiminoacetamido]ceph-3-em-4-carboxylate (syn isomer), prepared according to Method (iii) of Example 7 and Example 9 respectively, were exposed to moisture (75% relative humidity) for 3 days to give the title compound. The IR and NMR spectra of the products conformed to those of an authentic sample. Karl-Fischer water analysis gave, respectively, 4.0 and 3.85% (1 mole H2 O is equivalent to 3.9%).

Neisseria gonorrhoeae = test: in vitro antibacterial activity; assay type: cell-based
Klebsiella species = test: antibacterial activity; assay type: cell-based; settings: in vitro and in vivo tests
Haemophilus influenzae = test: antibacterial activity; assay type: cell-based
serum binding = assay type: in vitro ADME
Neisseria meningitidis = test: in vitro antibacterial activity; assay type: cell-based
Streptococcus pyogenes = test: antibacterial activity; assay type: cell-based; settings: in vitro and in vivo tests
Escherichia coli = test: antibacterial activity; assay type: cell-based; settings: in vitro and in vivo tests
Clostridia species = test: antibacterial activity; assay type: cell-based; settings: in vitro and in vivo tests
[2] = stability in the body and urinary recovery, animals; assay type: in vivo
Diplococcus pneumoniae = test: antibacterial activity; assay type: cell-based; settings: in vitro and in vivo tests
Staphylococci = test: antibacterial activity; assay type: cell-based; settings: in vitro and in vivo tests
Staphylococcus aureus = test: antibacterial activity; assay type: cell-based; settings: in vitro and in vivo tests
Proteus species = test: antibacterial activity; assay type: cell-based; settings: in vitro and in vivo tests
mammalian esterases = test: resistance to esterases; assay type: in vitro ADME
β-lactamases = test: stability to β-lactamases produced by gram-negative organisms; assay type: cell-based; settings: evidenced by in vitro activity against β-lactamase-producing strains of Escherichia, Enterobacter and Klebsiella species
Enterobacter species = test: antibacterial activity; assay type: cell-based; settings: in vitro and in vivo tests
[3] = system: gram-positive and gram-negative microorganisms; test: antibacterial activity against gram-positive and gram-negative microorganisms; assay type: cell-based
[4] = stability in the body and urinary recovery, humans; assay type: in vivo, human
[5] = serum levels following parenteral administration, humans; assay type: in vivo; settings: human subjects
Streptococcus vilidans = test: antibacterial activity; assay type: cell-based; settings: in vitro and in vivo tests
[6] = serum levels following parenteral administration, animals; assay type: in vivo; settings: animal subjects
Neisseria species = test: antibacterial activity; assay type: cell-based; settings: in vitro and in vivo tests
solubility of base salts = assay type: physicochemical; settings: e.g. alkali metal salts
[7] = distribution in the body on administration by injection; assay type: in vivo

## CO/N=C(\C(=O)N[C@@H]1C(=O)N2C(C(=O)O)=C(COC(N)=O)CS[C@H]12)c1ccco1 [Form I, Form I Sodium (6R,7R)-3-Carbamoyloxymethyl-7-[2-(fur-2-yl)-2-methoxyiminoacetamido]ceph-3-em-4-carboylate (syn isomer)]
[1]
  water content after exposure to moisture (Karl-Fischer): 4.0%
[1]; e.g. 75% relative humidity
  change of form on exposure to water vapour: undergo a change of crystalline form leading generally to Form IV salt
  water absorption on exposure to water vapour (hygroscopicity): absorb further water
[1]; e.g. 75% relative humidity, material generally Form IV
  water content of material resulting from exposure to water vapour: about 4%

## CO/N=C(\C(=O)N[C@@H]1C(=O)N2C(C(=O)O)=C(COC(N)=O)CS[C@H]12)c1ccco1 [Form II, Form II Sodium (6R,7R)-3-Carbamoyloxymethyl-7-[2-(fur-2-yl)-2-methoxyiminoacetamido]ceph-3-em-4-carboxylate (syn isomer)]
[1]; e.g. 75% relative humidity
  water absorption on exposure to water vapour (hygroscopicity): does not absorb further water

## CO/N=C(\C(=O)N[C@@H]1C(=O)N2C(C(=O)O)=C(COC(N)=O)CS[C@H]12)c1ccco1 [Form III, Form III Sodium (6R,7R)-3-Carbamoyloxymethyl-7-[2-(fur-2-yl)-2-methoxyiminoacetamido]ceph-3-em-4-carboxylate (syn isomer)]
[1]
  water content after exposure to moisture (Karl-Fischer): 3.85%
[1]; e.g. 75% relative humidity
  change of form on exposure to water vapour: loses all the dioxan present and forms Form IV material
  water absorption on exposure to water vapour (hygroscopicity): hygroscopic

## CO/N=C(\C(=O)N[C@@H]1C(=O)N2C(C(=O)O)=C(COC(N)=O)CS[C@H]12)c1ccco1 [compound (II), (6R,7R)-3-carbamoyloxymethyl-7-[2-(fur-2-yl)-2-methoxyiminoacetamido]ceph-3-em-4-carboxylic acid (syn isomer)]
Neisseria gonorrhoeae
  in vitro activity against strains of Neisseria gonorrhoeae: particularly high in vitro activity
Klebsiella species
  activity against Klebsiella species: active
Haemophilus influenzae; in vitro
  in vitro activity against strains of Haemophilus influenzae: particularly high in vitro activity
Haemophilus influenzae; in vitro and in vivo tests
  activity against Haemophilus influenzae: active
Serum binding
  serum binding: low serum binding
Neisseria meningitidis
  in vitro activity against strains of Neisseria meningitidis: particularly high in vitro activity
Streptococcus pyogenes
  activity against Streptococcus pyogenes: active
Escherichia coli
  activity against Escherichia coli: active
Clostridia species
  activity against Clostridia species: active
[2]
  recovery of unchanged compound in the urine: high levels
  stability in the body: stable
Diplococcus pneumoniae
  activity against Diplococcus pneumoniae: active
Staphylococci
  activity against Staphylococci: active
Staphylococcus aureus
  activity against Staphylococcus aureus: active
Proteus species
  activity against Proteus species: active
Mammalian esterases
  resistance to the action of mammalian esterases: resistant
β-lactamases
  stability to β-lactamases produced by a range of gram-negative organisms: very high stability
Enterobacter species
  activity against Enterobacter species: active
[3]; in vitro and in vivo tests
  activity against gram-positive and gram-negative microorganisms: active
[3]; inoculum levels as high as 10^7 organisms/ml
  in vitro activity at high inoculum levels: good in vitro activity
[4]
  recovery of unchanged compound in the urine: high levels
  stability in the body: stable
[5]
  serum levels: high serum levels
Streptococcus vilidans
  activity against Streptococcus vilidans: active
[6]
  serum levels: high serum levels
Neisseria species
  activity against Neisseria species: active

## CO/N=C(\C(=O)N[C@@H]1C(=O)N2C(C(=O)O)=C(COC(N)=O)CS[C@H]12)c1ccco1 [sodium salt, sodium (6R,7R)-3-carbamoyloxymethyl-7-[2-(fur-2-yl)-2-methoxyiminoacetamido]ceph-3-em-4-carboxylate (syn isomer)]
Solubility of base salts
  solubility: highly soluble
[7]
  distribution in the body: rapid distribution
